Assay results published in PubChem BioAssay AID1902 (Broad Institute, 2009).
The source made the active and inactive calls.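 Rule for the calls: active = EC50 no more than a set limit of log units above the highest dose; inactive = the rest.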

What follows are molecules tested against S. pyogenes SKKanGAS, kanamycin survival, BacTiterGlo, 6 h (assay: S. pyogenes SKKanGAS kanamycin growth inhibitors – SKKanGAS strain, luminescence, dose confirmation, streptokinase promoter inhibitor project, dose response (AID 1902);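 note: lower survival reflects blocked streptokinase promoter driving kanamycin resistance gene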).
CC(C)(C)c1ccc(CSc2cnn(C(C)(C)C)c(=O)c2Cl)cc1 gave an EC50 of 4.99 µM. O=c1/c(=C\c2cccc(O)c2)sc2nc(-c3ccccc3)c(-c3ccccc3)n12 was tested, and the EC50 was 7.63 µM. Work on COC(=O)c1c(C)[nH]c(C(=O)OCC(=O)N(CC(C)C)c2c(N)n(Cc3ccccc3)c(=O)[nH]c2=O)c1C yielded an EC50 of 9.34 µM. For Oc1ccc(N=Nc2ccc3c(c2)OCCO3)c2cccnc12, the EC50 was 0.257 µM. Cc1ccc(NC(=O)c2cccc(OCc3c(C)noc3C)c2)cc1S(=O)(=O)Nc1ccccc1Cl showed an EC50 of 7.39 µM. Molecule O=C(NC(c1ccccc1)c1cc(Cl)c2cccnc2c1O)c1cccnc1 (centres undefined) has an EC50 of 1.38 µM. For Cc1cc(NC(=S)N(Cc2ccc(Cl)cc2)Cc2ccc(C(=O)O)cc2)ccc1Cl, the EC50 was 6.93 µM. Cc1ccc(-c2nc3c(Cl)cc(Cl)cc3c(=O)n2O)cc1 gave an EC50 of 0.808 µM. In the case of CC1(C)CC[C@]2(C(=O)O)CC[C@]3(C)C(=CCC4[C@@]5(C)CC[C@H](O)C(C)(C)C5CC[C@]43C)C2C1 (some centres undefined), the EC50 is reported as 2.69 µM. In the case of COc1cccc(NC(=S)NN=C2CCCCCC2)c1, the EC50 is reported as 1.77 µM. O=C(NNC1=Nc2ccccc2SC1)c1ccc(F)cc1 showed an EC50 of 6.87 µM. Work on Fc1cccc2sc(Nc3nnc(-c4ccco4)o3)nc12 yielded an EC50 of 0.307 µM. In the case of COc1ccc(-c2cc(C3CCN(c4ccc(C(C)=O)cc4[N+](=O)[O-])CC3)[nH]n2)cc1, the EC50 is reported as 2.76 µM. For O=C(O)C(c1ccccc1)N1C(=O)/C(=C\c2ccc(-c3cccc(Cl)c3)o2)SC1=S (centres undefined), the EC50 was 1.94 µM. Work on NC(=O)c1cc(C(=O)Cc2ccccc2)c[nH]1 yielded an EC50 of 2.23 µM. With Cc1csc(NC(=O)COCC(=O)O)c1-c1nc2ccccc2s1 the EC50 was 6.45 µM. For COc1ccc(-c2cc3ncnc(Cl)c3s2)cc1, the EC50 was 7.15 µM. COc1ccc(Cn2c(C3CCCCC3)nc3c(c(=O)c4ccccc4n3C)c2=O)cc1 showed an EC50 of 3.2 µM. With Nc1c(Cl)cc(-c2csc(N3CCCC3c3nc4cc(Cl)c(Cl)cc4n3CCOCCO)n2)cc1Cl (centres undefined) the EC50 was > 15 µM (inactive). CCOc1ccc(-n2c(O)c(/C=N/NC(=O)C3COc4ccccc4O3)c3ccccc3c2=O)cc1 (centres undefined) gave an EC50 of 2.34 µM. Cc1ccc(CN2CC(C(=O)Nc3nnc(SCc4c(Cl)cccc4Cl)s3)CC2=O)cc1 (centres undefined) was tested, and the EC50 was 4.87 µM. COc1ccccc1NS(=O)(=O)c1cc(NC(=S)NCC2CCCO2)ccc1C (centres undefined) was tested, and the EC50 was > 15 µM (inactive). For COc1cc(/C=N/Nc2ncnc3sc4c(c23)CCC4)ccc1O, the EC50 was 2.11 µM. With COc1ccc(CN(C)S(=O)(=O)c2nnc(NC(=O)c3ccccc3Br)s2)cc1 the EC50 was 3.51 µM. COc1ccc(C2CC(c3cccs3)=NN2C(=O)c2ccc(Br)o2)cc1 (centres undefined) showed an EC50 of 5.63 µM. For O=[N+]([O-])c1cc(Cl)cc(/C=N\Nc2ccccn2)c1O, the EC50 was 2.89 µM. CC1=NN(c2nc3ccccc3[nH]2)C(=O)C1Cc1ccccc1 (centres undefined) gave an EC50 of 0.507 µM. CC(C)Cn1c(=O)c(C(=O)Nc2ccccc2S(N)(=O)=O)c(O)c2ccccc21 was tested, and the EC50 was 8.58 µM. Molecule CCOC(=O)c1cccc(NC(=S)N2CCN(c3ncc4c(=O)c(C(=O)O)cn(CC)c4n3)CC2)c1 has an EC50 of 6.28 µM. CCCCNc1c(-c2cccc(-c3ccc(OC)cc3)c2)nc2ccc(C)cn12 showed an EC50 of 4.05 µM. CCCc1nc2ccccc2c(=O)n1/N=C/c1c(C)[nH]n(-c2ccc(C)cc2)c1=O gave an EC50 of 1.23 µM. Cc1ccc(C(=O)CC(=O)c2ccccc2C)c(O)c1 was tested, and the EC50 was 5.18 µM. With Nc1nc(CN2CCN(c3ccccc3)CC2)nc(N2CCCc3ccccc32)n1 the EC50 was 0.879 µM. CCC(O)(CC)C(=O)N/N=C/c1cc(Br)cc(Br)c1O gave an EC50 of 2.64 µM. In the case of CN(Cc1ccc(N(C)C)cc1)C(=O)c1cc2ccccc2o1, the EC50 is reported as > 15 µM (inactive). Cc1nc2ccccc2n1/N=C/c1ccc([N+](=O)[O-])s1 showed an EC50 of 2.39 µM. Work on Cc1ccc(C)c2sc(N3CCN(C(=O)c4ccc([N+](=O)[O-])o4)CC3)nc12 yielded an EC50 of 5.58 µM. With CC(=O)c1cccc(OC(=O)c2ccc3c(=O)n4c(nc3c2)CCC4)c1 the EC50 was 13.7 µM. For COc1ccc(Cl)cc1NC(=O)CN1CCC(n2nnc3cc(C)ccc32)CC1, the EC50 was 10.8 µM. Cc1ccc(Sc2cc(C)nc(-c3ccccn3)n2)cc1 gave an EC50 of 12.4 µM. With O=C(Nc1scc(-c2ccc(Br)cc2)c1C(=O)O)c1ccccc1F the EC50 was 1.86 µM. For CC[C@H]1OC(=O)[C@H](C)[C@@H](O[C@H]2C[C@@](C)(OC)[C@@H](O)[C@H](C)O2)[C@H](C)[C@@H](O[C@@H]2O[C@H](C)C[C@H](N(C)C)[C@H]2O)[C@](C)(O)C[C@@H](C)CN(C)[C@H](C)[C@@H](O)[C@]1(C)O, the EC50 was under 0.06 µM. In the case of CCC(C)c1ccc(C(C)NC(=S)NC2CCCCC2)cc1 (centres undefined), the EC50 is reported as 9.12 µM. CCOC(=O)c1ccc(NC(=O)c2nc[nH]c2C(=O)N[C@@H](CCCCNC(=O)OC(C)(C)C)C(=O)OC(C)(C)C)cc1 showed an EC50 of 4.72 µM. Cc1cc(/C=N/n2cnnc2)c(C)n1-c1ccc(OCc2ccc(Cl)cc2)cc1 showed an EC50 of 6.19 µM. CC(C)(O)c1ccccc1CC[C@@H](SCC1(CC(=O)O)CC1)c1cccc(/C=C/c2ccc3ccc(Cl)cc3n2)c1 showed an EC50 of 1.44 µM. In the case of COc1cccc(-c2cc(C(F)(F)F)nc(N3CCC(C)CC3)n2)c1, the EC50 is reported as 7.06 µM. Work on COc1cc(/C=N/Nc2nc(Nc3ccc(C)cc3)nc(-n3nc(C)cc3C)n2)cc(OC)c1OC yielded an EC50 of 0.171 µM. For Cc1ccc(C(=O)OC2OC(=O)C(Cl)=C2N2CCOCC2)cc1 (centres undefined), the EC50 was 0.884 µM. Molecule CCOc1ccccc1C(=O)OCC(=O)Nc1nnc(-c2ccccc2)o1 has an EC50 of 6.94 µM. Molecule Cc1cccc(C)c1OCC(O)CN1CCC(CN2C(=O)c3cccc4cccc(c34)C2=O)CC1 (centres undefined) has an EC50 of 7.35 µM. Work on CC(C)c1ccc(-n2c(O)c(/C=N/NC(=O)c3ccccc3O)c(=O)[nH]c2=S)cc1 yielded an EC50 of 7 µM. In the case of O=C(NC(=S)NNC(=O)c1ccccc1O)c1ccco1, the EC50 is reported as 3.06 µM. COc1ccc(C(CNC(=O)c2cccc(S(=O)(=O)Nc3ccccc3Cl)c2)N2CCOCC2)cc1 (centres undefined) showed an EC50 of 11.1 µM. O=C(CSc1nnc(-c2ccc3c(c2)OCO3)o1)Nc1ncc(C(F)(F)F)cc1Cl showed an EC50 of 0.856 µM. Cc1ccc2cc(CN(Cc3cccs3)C(=O)c3ccco3)c3nnnn3c2c1C was tested, and the EC50 was 4.71 µM. Molecule CCOC(=O)c1csc(N/N=C2\CCCc3ccccc32)n1 has an EC50 of 11 µM. With CCOc1ccc(/C=N/Nc2cc(N3CCOCC3)nc(C)n2)c(O)c1 the EC50 was 8.48 µM. C=CCn1c(SCC(=O)/C(C#N)=C(\C)N)nc2sc(C)c(C)c2c1=O was tested, and the EC50 was 5.25 µM. For Cc1c(C(=O)N/N=C/c2ccc(Cl)cc2)[nH]c2ccc(Cl)cc12, the EC50 was 2.71 µM. With CC(=O)O[C@H]1C[C@@]2(C)[C@@H](C[C@@H](O)[C@H]3[C@@]4(C)CC[C@@H](O)[C@@H](C)C4CC[C@@]32C)/C1=C(\CCC=C(C)C)C(=O)O (some centres undefined) the EC50 was 1.58 µM. COc1ccc(/C=N/Nc2cc(C)nc(-n3nc(C)cc3C)n2)c(OC)c1 showed an EC50 of 7.93 µM. CN(C)CCCNC(=S)NCC(c1ccc(Cl)cc1Cl)c1c[nH]c2ccccc12 (centres undefined) showed an EC50 of 7.22 µM. For COc1ccc(-c2cc3nc4ccccc4n3c(N)c2C#N)cc1, the EC50 was 4.21 µM. Cc1[nH]c(N=Nc2ccccc2)nc1N=Nc1ccccc1 gave an EC50 of 2.8 µM. CCOC(=O)c1cnc(-n2nc(C)cc2C)nc1NC1CCCC1 was tested, and the EC50 was 2.58 µM. Cn1c(=O)c(C(=O)NNC(=O)c2ccccc2F)c(O)c2ccccc21 showed an EC50 of 4.25 µM. In the case of Oc1c(Br)cc(Br)cc1/C=N/NC(=S)N[C@H]1CC2C=CC1C2 (some centres undefined), the EC50 is reported as 0.15 µM. Molecule COC(=O)c1ccc(NC(=O)c2nc(S(=O)(=O)Cc3cccc(C)c3)ncc2Cl)cc1 has an EC50 of 1.04 µM. Cc1ccc2nc(N3C(=O)C(O)=C(C(=O)c4ccco4)C3c3cccs3)sc2c1 (centres undefined) gave an EC50 of 2.1 µM. CCOc1ccc(C(=O)NC(=S)N(Cc2ccccc2)Cc2ccccc2)cc1 gave an EC50 of 1.39 µM. Molecule Brc1ccccc1C1Nc2cccc3cccc(c23)N1 has an EC50 of 5.03 µM. Work on CCSc1nnc(NC(=O)c2ccccn2)s1 yielded an EC50 of 4 µM. For CC(C)C(Sc1nc(-c2ccccc2)cc(-c2ccccc2)c1C#N)C(=O)O (centres undefined), the EC50 was 2.04 µM. CCc1ccc(N(CC(=O)NC2CC2)S(=O)(=O)c2ccc(C)cc2)cc1 was tested, and the EC50 was > 15 µM (inactive). COc1ccc(CNCC(O)(c2ccc(Cl)cc2)c2ccc(Cl)cc2)cc1 showed an EC50 of 3.51 µM. Oc1ccc(/C=N/Nc2nc(-c3ccc(Cl)cc3)cc(C(F)(F)F)n2)cc1 showed an EC50 of 7.89 µM. COc1ccc(C(=O)NC(=S)NNC(=O)c2c(-c3ccccc3)noc2C)cc1OC showed an EC50 of 0.506 µM. With Cc1cccc(NCC(=O)N/N=C\c2cccc(Oc3ccccc3)c2)c1 the EC50 was 11.9 µM. Work on CC(C)(C)c1ccc(C(=O)NNC(=S)NC(=O)c2cccnc2)cc1 yielded an EC50 of 0.249 µM. Molecule CCc1ccc(/C=C2\SC(=S)N(CCCC(=O)Nc3ccc(C(=O)O)cc3)C2=O)cc1 has an EC50 of 7.83 µM. In the case of CCN(CC)CCN(C(=O)C1=COCCO1)c1nc2cc(C)cc(C)c2s1, the EC50 is reported as > 15 µM (inactive). Work on C[C@]12CC[C@@H]3c4ccc(OC(=O)c5ccccc5)cc4CC[C@H]3[C@@H]1CC[C@@H]2O yielded an EC50 of 1.92 µM. With COc1ccc(-c2nc(-c3ccc4c(c3)OCO4)[nH]c2-c2ccc(OC)cc2)cc1 the EC50 was 4.71 µM. For COc1ccc(NC(=O)C(=O)NNC(=O)C(C)Oc2ccc(Cl)cc2Cl)cc1 (centres undefined), the EC50 was 3.31 µM. CNC[C@H](Cc1ccccc1)NC[C@@H](Cc1cccc2ccccc12)NCCc1ccc(C)cc1 gave an EC50 of 4.28 µM. Cc1ccc(C(=O)Nc2nnc(C3=COCCO3)o2)cc1C gave an EC50 of 2.96 µM. Work on Fc1ccc(-n2cc(-c3ccccc3)c3c(=S)nc[nH]c32)cc1 yielded an EC50 of 8.7 µM. O=C(NCC1CCCO1)c1cc2c([nH]c3ccccc32)c(-c2cccc(Cl)c2)n1 (centres undefined) was tested, and the EC50 was 4.27 µM. With COc1cnc(-c2ccccn2)nc1Oc1ccc(C(C)(C)C)cc1 the EC50 was 7.68 µM. CCOC(=O)c1cnc(-n2cc(C)cn2)nc1Nc1ccccc1OCC was tested, and the EC50 was 4.18 µM. Molecule O=C(Nc1cccc(Cl)c1)Nc1cc(S(=O)(=O)N2CCCCC2)ccc1Cl has an EC50 of 7.75 µM. Molecule Cc1onc(-c2ccccc2)c1C(=O)NNC(=S)NC(=O)c1ccc2c(c1)OCO2 has an EC50 of 0.589 µM. Work on Cc1ccc(-n2c(O)c(C=Nc3ccccc3-c3n[nH]c(=S)[nH]c3=O)c3ccccc3c2=O)cc1C yielded an EC50 of 0.915 µM. Work on COC(=O)c1c(NC(=O)c2ccccc2)sc(C(=O)c2ccccc2)c1C yielded an EC50 of 5.41 µM. C/C(=N\Nc1cc(C)nc(-c2ccccc2O)n1)c1ccccc1O gave an EC50 of 5.37 µM. CCCC(=O)NC(c1ccc(C(C)C)cc1)c1ccc2cccnc2c1O (centres undefined) showed an EC50 of 5.54 µM. Work on N=c1c(-c2nc3ccccc3[nH]2)cc(C(=O)c2cccs2)nn1-c1ccccc1 yielded an EC50 of 1.89 µM. With COc1ccc(Cl)cc1C(=O)NNC(=S)NC(=O)c1cc(-c2ccc(Cl)cc2)nc2ccccc12 the EC50 was 0.254 µM. With Cc1oc2c(c1C(=O)NCc1cccnc1)C(=O)c1ccccc1C2=O the EC50 was 0.882 µM. For c1ccc(-c2nc(N3CCCCCC3)nc(-n3ccnc3)n2)cc1, the EC50 was 2.41 µM. With CC(=O)C1=C(c2ccc(Br)cc2)C(=O)c2ccccc2C1=O the EC50 was 1.45 µM. N=C(N)c1ccc(/C=C/c2ccc(C(=N)N)cc2O)cc1 showed an EC50 of 3.34 µM. Molecule Cc1cc2oc(=O)cc(CNc3ccccc3F)c2cc1O has an EC50 of 10.2 µM.
